In PubChem BioAssay AID248 (DTP/NCI, 2004):
Inconclusive results and toxic doses are left out. Square brackets hold non-standard residues; d marks the D form. Peptide text beside a SMILES is read from it. * marks the point of attachment. ξ: configuration not given here. Cbz = O=C(OCc1ccccc1)*; ξI = CCC(C)C(N)C(=O)O

System: L1210 leukemia ip in BDF1 mice, survival T/C
Test: NCI In Vivo Anticancer Drug Screen. Data for tumor model L1210 Leukemia (intraperitoneal) in B6D2F1 (BDF1) mice
Conditions: endpoint: mean survival time, higher = longer survival
Outline: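 Tumor cells were implanted, animals were treated, and survival was followed. The result divides the treated measurement by the vehicle-control measurement.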

[1] = dose: 100.0 mg/kg/injection, schedule: Q01DX009 (ip), vehicle: saline with Tween-80
[2] = dose: 100.0 mg/kg/injection, schedule: Q04DX003 (ip), vehicle: saline with Tween-80
[3] = dose: 200.0 mg/kg/injection, schedule: Q01DX009 (ip), vehicle: saline with Tween-80
[4] = dose: 200.0 mg/kg/injection, schedule: Q04DX003 (ip), vehicle: saline with Tween-80
[5] = dose: 400.0 mg/kg/injection, schedule: Q01DX009 (ip), vehicle: saline with Tween-80
[6] = dose: 400.0 mg/kg/injection, schedule: Q04DX003 (ip), vehicle: saline with Tween-80
[7] = dose: 100.0 mg/kg/injection, schedule: Q01DX009 (ip), vehicle: saline
[8] = dose: 100.0 mg/kg/injection, schedule: Q04DX003 (ip), vehicle: saline
[9] = dose: 200.0 mg/kg/injection, schedule: Q01DX009 (ip), vehicle: saline
[10] = dose: 200.0 mg/kg/injection, schedule: Q04DX003 (ip), vehicle: saline
[11] = dose: 400.0 mg/kg/injection, schedule: Q04DX003 (ip), vehicle: saline
[12] = dose: 100.0 mg/kg/injection, schedule: Q04DX003 (ip), vehicle: Klucel (hydroxypropylcellulose) (HPC)
[13] = dose: 200.0 mg/kg/injection, schedule: Q04DX003 (ip), vehicle: Klucel (hydroxypropylcellulose) (HPC)
[14] = dose: 400.0 mg/kg/injection, schedule: Q04DX003 (ip), vehicle: Klucel (hydroxypropylcellulose) (HPC)
[15] = dose: 25.0 mg/kg/injection, schedule: Q04DX003 (ip), vehicle: saline
[16] = dose: 75.0 mg/kg/injection, schedule: Q01DX001 (ip), vehicle: saline
[17] = dose: 150.0 mg/kg/injection, schedule: Q01DX001 (ip), vehicle: saline
[18] = dose: 50.0 mg/kg/injection, schedule: Q01DX009 (ip), vehicle: saline with Tween-80
[19] = dose: 100.0 mg/kg/injection, schedule: Q01DX001 (ip), vehicle: saline
[20] = dose: 200.0 mg/kg/injection, schedule: Q01DX001 (ip), vehicle: saline
[21] = dose: 400.0 mg/kg/injection, schedule: Q01DX001 (ip), vehicle: saline

SMILES: CCOC(=O)c1cn(C2OC(COC(C)=O)C(OC(C)=O)C2OC(C)=O)c2nc(SC)nc(NC(C)=O)c2c1=O (configuration not stated)
- T/C (dose: 100.0 mg/kg/injection, schedule: Q01DX005 (ip), vehicle: saline): 97 % of control
- T/C (dose: 200.0 mg/kg/injection, schedule: Q01DX005 (ip), vehicle: saline): 91 % of control

SMILES: CC(CO)CCC1OC2CC3C4CCC5CC(O)CCC5(C)C4CCC3(C)C2C1C (configuration not stated)
- T/C (dose: 100.0 mg/kg/injection, schedule: Q04DX002 (ip), vehicle: Klucel (hydroxypropylcellulose) (HPC)): 86 % of control
- T/C (dose: 200.0 mg/kg/injection, schedule: Q04DX002 (ip), vehicle: Klucel (hydroxypropylcellulose) (HPC)): 95 % of control
- T/C (dose: 400.0 mg/kg/injection, schedule: Q04DX002 (ip), vehicle: Klucel (hydroxypropylcellulose) (HPC)): 95 % of control

SMILES: CCN1c2ccccc2S(=O)c2cc([N+](=O)[O-])ccc21 (configuration not stated)
- T/C (dose: 50.0 mg/kg/injection, schedule: Q01DX001 (ip), vehicle: carboxymethylcellulose (CMC)): 93 % of control
- T/C (dose: 100.0 mg/kg/injection, schedule: Q01DX001 (ip), vehicle: carboxymethylcellulose (CMC)): 87 % of control
- T/C (dose: 200.0 mg/kg/injection, schedule: Q01DX001 (ip), vehicle: carboxymethylcellulose (CMC)): 96 % of control
- T/C (dose: 400.0 mg/kg/injection, schedule: Q01DX001 (ip), vehicle: carboxymethylcellulose (CMC)): 98 % of control

SMILES: COc1ccccc1OC(=S)N(C)C
- T/C [1]: 102 % of control
- T/C [2]: 103 % of control
- T/C [3]: 100 % of control
- T/C [4]: 122 % of control
- T/C [5]: 93 % of control
- T/C [6]: 105 % of control

SMILES: c1nc2c([nH]1)CNCC2
- T/C [7]: 94 % of control
- T/C [8]: 100 % of control
- T/C [9]: 93 % of control
- T/C [10]: 98 % of control
- T/C (dose: 400.0 mg/kg/injection, schedule: Q01DX009 (ip), vehicle: saline): 94 % of control
- T/C [11]: 108 % of control

SMILES: CC[N+](C)(CC)CCN1C(=O)c2ccccc2S1(=O)=O
- T/C (dose: 44.0 mg/kg/injection, schedule: Q01DX Z (ip), vehicle: saline): 108 % of control
- T/C (dose: 66.0 mg/kg/injection, schedule: Q01DX Z (ip), vehicle: saline): 98 % of control

SMILES: NCCC(c1ccccc1)c1ccccc1
- T/C (dose: 75.0 mg/kg/injection, schedule: Q01DX001 (ip), vehicle: carboxymethylcellulose (CMC)): 104 % of control

SMILES: CCN(C(=O)COc1ccc(Cl)cc1Cl)c1ccccc1C
- T/C [1]: 106 % of control
- T/C [2]: 105 % of control
- T/C [3]: 107 % of control
- T/C [4]: 102 % of control
- T/C [5]: 98 % of control
- T/C [6]: 93 % of control

SMILES: CC1(C)C/C(=C\c2ccc(Cl)cc2)C(=O)c2ccccc21
- T/C (dose: 100.0 mg/kg/injection, schedule: Q01DX009 (ip), vehicle: Klucel (hydroxypropylcellulose) (HPC)): 97 % of control
- T/C [12]: 95 % of control
- T/C (dose: 200.0 mg/kg/injection, schedule: Q01DX009 (ip), vehicle: Klucel (hydroxypropylcellulose) (HPC)): 93 % of control
- T/C [13]: 92 % of control
- T/C (dose: 400.0 mg/kg/injection, schedule: Q01DX009 (ip), vehicle: Klucel (hydroxypropylcellulose) (HPC)): 97 % of control
- T/C [14]: 92 % of control

SMILES: CCOC(=O)NCCc1ccc(OC)c(OC)c1
- T/C [1]: 92 % of control
- T/C [2]: 97 % of control
- T/C [3]: 91 % of control
- T/C [4]: 112 % of control
- T/C [5]: 96 % of control
- T/C [6]: 102 % of control

SMILES: CCC(C)C(NC(=O)CNC(=O)OCc1ccccc1)C(N)=O (stereo not drawn) (Cbz-Gly-[ξI]-NH2)
- T/C [2]: 103 % of control
- T/C [4]: 97 % of control
- T/C [6]: 95 % of control

SMILES: N#CC(O)Cc1ccccc1 (configuration not stated)
- T/C (dose: 2.5 mg/kg/injection, schedule: Q01DX009 (ip), vehicle: saline): 95 % of control
- T/C (dose: 5.0 mg/kg/injection, schedule: Q01DX009 (ip), vehicle: saline): 90 % of control
- T/C (dose: 10.0 mg/kg/injection, schedule: Q01DX009 (ip), vehicle: saline): 97 % of control

SMILES: COc1cc(C(=O)OC(C)CN2CCN(C(=O)c3cc(OC)c(OC)c(OC)c3)CC2)cc(OC)c1OC (configuration not stated)
- T/C (dose: 25.0 mg/kg/injection, schedule: Q01DX009 (ip), vehicle: saline): 108 % of control
- T/C [15]: 98 % of control
- T/C (dose: 50.0 mg/kg/injection, schedule: Q01DX009 (ip), vehicle: saline): 101 % of control
- T/C (dose: 50.0 mg/kg/injection, schedule: Q04DX003 (ip), vehicle: saline): 95 % of control
- T/C [7]: 104 % of control
- T/C [8]: 102 % of control
- T/C [9]: 98 % of control
- T/C [10]: 102 % of control
- T/C [11]: 109 % of control

SMILES: COP(=S)(OC)N(C)C
- T/C [16]: 101 % of control
- T/C [17]: 96 % of control

SMILES: Cc1noc(NC(=O)Nc2ccc(Cl)cc2Cl)c1C
- T/C (dose: 12.5 mg/kg/injection, schedule: Q01DX009 (ip), vehicle: saline with Tween-80): 86 % of control
- T/C (dose: 25.0 mg/kg/injection, schedule: Q01DX009 (ip), vehicle: saline with Tween-80): 89 % of control
- T/C [18]: 91 % of control
- T/C [1]: 91 % of control
- T/C [3]: 87 % of control

SMILES: OCC1CC2CCC1CC2 (configuration not stated)
- T/C [18]: 100 % of control
- T/C [1]: 105 % of control
- T/C [3]: 108 % of control

SMILES: CCN(CC)C(=O)OCCCN(C)C
- T/C (dose: 50.0 mg/kg/injection, schedule: Q01DX009 (ip), vehicle: Klucel (hydroxypropylcellulose) (HPC)): 96 % of control
- T/C [8]: 105 % of control
- T/C [10]: 105 % of control

SMILES: CC(=O)C(C)C(C)(C)C (configuration not stated)
- T/C [19]: 106 % of control
- T/C [20]: 92 % of control
- T/C [21]: 97 % of control

SMILES: N#CC(c1ccc(Cl)cc1)c1ccc(N(CCO)CCO)cc1 (configuration not stated)
- T/C [19]: 99 % of control
- T/C (dose: 100.0 mg/kg/injection, schedule: Q04DX003 (ip), vehicle: acetone): 103 % of control
- T/C [20]: 99 % of control
- T/C (dose: 200.0 mg/kg/injection, schedule: Q04DX003 (ip), vehicle: acetone): 97 % of control
- T/C [21]: 86 % of control
- T/C (dose: 400.0 mg/kg/injection, schedule: Q04DX003 (ip), vehicle: acetone): 91 % of control

SMILES: C=CCN(C)/N=N/c1[nH]ncc1C(N)=O
- T/C (dose: 14.5 mg/kg/injection, schedule: Q01DX009 (ip), vehicle: saline with Tween-80): 116 % of control
- T/C (dose: 44.0 mg/kg/injection, schedule: Q04DX003 (ip), vehicle: saline with Tween-80): 114 % of control
- T/C [18]: 157 % of control
- T/C (dose: 50.0 mg/kg/injection, schedule: Q04DX003 (ip), vehicle: saline with Tween-80): 119 % of control
- T/C (dose: 67.0 mg/kg/injection, schedule: Q04DX003 (ip), vehicle: saline with Tween-80): 114 % of control
- T/C (dose: 100.0 mg/kg/injection, schedule: Q01DX001 (ip), vehicle: saline with Tween-80): 109 % of control
- T/C [1]: 154 % of control
- T/C [3]: 88 % of control

SMILES: CCOC(=O)C1(C(=O)OCC)CCC(OCC)N1C(=O)c1cc(OC)c(OC)cc1[N+](=O)[O-] (configuration not stated)
- T/C [12]: 105 % of control
- T/C [13]: 100 % of control
- T/C [14]: 99 % of control

SMILES: O=Nc1nc2ncccn2c1-c1ccccc1
- T/C (dose: 50.0 mg/kg/injection, schedule: Q01DX001 (ip), vehicle: saline): 97 % of control
- T/C [19]: 101 % of control
- T/C [20]: 103 % of control
- T/C [21]: 109 % of control

SMILES: FCCBr
- T/C (dose: 3.12 mg/kg/injection, schedule: Q04DX003 (ip), vehicle: saline): 104 % of control
- T/C (dose: 6.25 mg/kg/injection, schedule: Q04DX003 (ip), vehicle: saline): 104 % of control
- T/C (dose: 12.5 mg/kg/injection, schedule: Q01DX009 (ip), vehicle: water): 100 % of control
- T/C (dose: 12.5 mg/kg/injection, schedule: Q04DX003 (ip), vehicle: saline): 107 % of control
- T/C [15]: 112 % of control
- T/C (dose: 25.0 mg/kg/injection, schedule: Q04DX003 (ip), vehicle: water): 97 % of control
- T/C (dose: 100.0 mg/kg/injection, schedule: Q04DX003 (ip), vehicle: water): 112 % of control

SMILES: CCC1(C2=CCCCC2)C(=O)NC(=S)NC1=O
- T/C [16]: 102 % of control
- T/C [17]: 106 % of control
- T/C (dose: 300.0 mg/kg/injection, schedule: Q01DX001 (ip), vehicle: saline): 104 % of control

SMILES: CCN(CC)Cc1nnnn1-c1ccccc1
- T/C [19]: 103 % of control
- T/C [20]: 97 % of control
- T/C [21]: 106 % of control

SMILES: COc1ccc2c(c1O)C13CCN(C)C(C2)C1CCC1(C3)OCCO1 (configuration not stated)
- T/C [19]: 95 % of control
- T/C [7]: 100 % of control
- T/C [20]: 104 % of control
- T/C [9]: 103 % of control
- T/C [21]: 98 % of control
